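96-well plates; 48 h exposure; 5 concentrations. Endpoints by linear interpolation between flanking doses. Not reached: highest tested concentration assigned. TGI denotes the concentration required for complete inhibition of growth.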

In the first assay the test system is SK-MEL-5 melanoma. The experiment in a line: NCI-60 cell line screen, 48 h.
Take `CC1(C)[C@@H]2CC[C@@]1(C)[C@@H]1O[C@@H](O[C@@H](CN)c3cc(Cl)c(OCc4ccccc4)c(OCc4ccccc4)c3)C[C@H]21`: the TGI came out at 0.324 µM.

Compound `COc1cc(C2CC(C)(Nc3ccccc3)Oc3cc4c(cc32)OCO4)cc(OC)c1OC` (stereo unspecified) had a TGI of 8.01 µM.

On to `COC(=O)c1c2c(cc3c1CC1(C3)Cc3cc4c(c(C(=O)OC)c3C1)CCCC4)CCCC2`, for which the TGI was > 100 µM.

`O=C(/C=C/c1ccsc1)c1ccsc1` yielded a TGI of 35.1 µM.

The test system of the next assay is SK-MEL-2 melanoma. Briefly: NCI-60 cell line screen, 48 h.
Compound `CC1(C)[C@@H]2CC[C@@]1(C)[C@@H]1O[C@@H](O[C@@H](CN)c3cc(Cl)c(OCc4ccccc4)c(OCc4ccccc4)c3)C[C@H]21` registered a TGI of 0.311 µM.

As to `COc1cc(C2CC(C)(Nc3ccccc3)Oc3cc4c(cc32)OCO4)cc(OC)c1OC` (stereo unspecified), the TGI was > 29.4 µM.

Consider `COC(=O)c1c2c(cc3c1CC1(C3)Cc3cc4c(c(C(=O)OC)c3C1)CCCC4)CCCC2`, for which the TGI was 5.18 µM.

As to `O=C(/C=C/c1ccsc1)c1ccsc1`, the TGI was > 100 µM.

A further assay relates to NCI/ADR-RES ovarian. Briefly: NCI-60 cell line screen, 48 h.
For the compound `COC(=O)c1c2c(cc3c1CC1(C3)Cc3cc4c(c(C(=O)OC)c3C1)CCCC4)CCCC2`, the TGI was > 100 µM.

With `O=C(/C=C/c1ccsc1)c1ccsc1`, the TGI was > 100 µM.

The test system of the next assay is SR leukemia. The experiment in a line: NCI-60 cell line screen, 48 h.
The compound `CC1(C)[C@@H]2CC[C@@]1(C)[C@@H]1O[C@@H](O[C@@H](CN)c3cc(Cl)c(OCc4ccccc4)c(OCc4ccccc4)c3)C[C@H]21` returned a TGI of 0.222 µM.

Regarding `COc1cc(C2CC(C)(Nc3ccccc3)Oc3cc4c(cc32)OCO4)cc(OC)c1OC` (stereo unspecified), the TGI was > 60.7 µM.

`O=C(/C=C/c1ccsc1)c1ccsc1` showed a TGI of 46.5 µM.

A further assay deals with NCI-H460 lung. The experiment in a line: NCI-60 cell line screen, 48 h.
As to `COc1cc(C2CC(C)(Nc3ccccc3)Oc3cc4c(cc32)OCO4)cc(OC)c1OC` (stereo unspecified), the TGI came out at 25.6 µM.

For `O=C(/C=C/c1ccsc1)c1ccsc1`, the TGI came to 69.6 µM.

The test system of another assay is RPMI-8226 leukemia. Briefly: NCI-60 cell line screen, 48 h.
In the case of `CC1(C)[C@@H]2CC[C@@]1(C)[C@@H]1O[C@@H](O[C@@H](CN)c3cc(Cl)c(OCc4ccccc4)c(OCc4ccccc4)c3)C[C@H]21`, the TGI came out at 0.225 µM.

In turn, `COc1cc(C2CC(C)(Nc3ccccc3)Oc3cc4c(cc32)OCO4)cc(OC)c1OC` (stereo unspecified) showed a TGI of 50.1 µM.

As to `COC(=O)c1c2c(cc3c1CC1(C3)Cc3cc4c(c(C(=O)OC)c3C1)CCCC4)CCCC2`, the TGI is > 100 µM.

As to `O=C(/C=C/c1ccsc1)c1ccsc1`, the TGI amounted to 47.2 µM.

A further assay relates to BT-549 breast. Briefly: NCI-60 cell line screen, 48 h.
`COc1cc(C2CC(C)(Nc3ccccc3)Oc3cc4c(cc32)OCO4)cc(OC)c1OC` (stereo unspecified): the TGI was > 100 µM.

In a further assay the test system is MOLT-4 leukemia. The experiment in a line: NCI-60 cell line screen, 48 h.
In the case of `CC1(C)[C@@H]2CC[C@@]1(C)[C@@H]1O[C@@H](O[C@@H](CN)c3cc(Cl)c(OCc4ccccc4)c(OCc4ccccc4)c3)C[C@H]21`, the TGI turned out to be 0.341 µM.

With `COc1cc(C2CC(C)(Nc3ccccc3)Oc3cc4c(cc32)OCO4)cc(OC)c1OC` (stereo unspecified), the TGI was > 31.6 µM.

As for `COC(=O)c1c2c(cc3c1CC1(C3)Cc3cc4c(c(C(=O)OC)c3C1)CCCC4)CCCC2`, the TGI is > 100 µM.

The compound `O=C(/C=C/c1ccsc1)c1ccsc1` had a TGI of 44.7 µM.

A further assay has as its system HT29 colon. The experiment in a line: NCI-60 cell line screen, 48 h.
Take `CC1(C)[C@@H]2CC[C@@]1(C)[C@@H]1O[C@@H](O[C@@H](CN)c3cc(Cl)c(OCc4ccccc4)c(OCc4ccccc4)c3)C[C@H]21`: the TGI was determined as 0.284 µM.

As to `COc1cc(C2CC(C)(Nc3ccccc3)Oc3cc4c(cc32)OCO4)cc(OC)c1OC` (stereo unspecified), the TGI was 0.619 µM.

Turning to `COC(=O)c1c2c(cc3c1CC1(C3)Cc3cc4c(c(C(=O)OC)c3C1)CCCC4)CCCC2`, the TGI was > 100 µM.

Compound `O=C(/C=C/c1ccsc1)c1ccsc1` displayed a TGI of 74.8 µM.

The subject of a further assay is SW-620 colon. The experiment in a line: NCI-60 cell line screen, 48 h.
Compound `CC1(C)[C@@H]2CC[C@@]1(C)[C@@H]1O[C@@H](O[C@@H](CN)c3cc(Cl)c(OCc4ccccc4)c(OCc4ccccc4)c3)C[C@H]21` had a TGI of 0.43 µM.

In the case of `COc1cc(C2CC(C)(Nc3ccccc3)Oc3cc4c(cc32)OCO4)cc(OC)c1OC` (stereo unspecified), the TGI was > 100 µM.

For the compound `O=C(/C=C/c1ccsc1)c1ccsc1`, the TGI was found to be 60.1 µM.

A further assay deals with SK-MEL-28 melanoma. The experiment in a line: NCI-60 cell line screen, 48 h.
`CC1(C)[C@@H]2CC[C@@]1(C)[C@@H]1O[C@@H](O[C@@H](CN)c3cc(Cl)c(OCc4ccccc4)c(OCc4ccccc4)c3)C[C@H]21` showed a TGI of 0.384 µM.

Regarding `COc1cc(C2CC(C)(Nc3ccccc3)Oc3cc4c(cc32)OCO4)cc(OC)c1OC` (stereo unspecified), the TGI is > 100 µM.

As for `O=C(/C=C/c1ccsc1)c1ccsc1`, the TGI came to 89.3 µM.

The next assay has as its system KM12 colon. Briefly: NCI-60 cell line screen, 48 h.
`CC1(C)[C@@H]2CC[C@@]1(C)[C@@H]1O[C@@H](O[C@@H](CN)c3cc(Cl)c(OCc4ccccc4)c(OCc4ccccc4)c3)C[C@H]21` had a TGI of 0.305 µM.

With `COc1cc(C2CC(C)(Nc3ccccc3)Oc3cc4c(cc32)OCO4)cc(OC)c1OC` (stereo unspecified), the TGI was > 37.5 µM.

As to `COC(=O)c1c2c(cc3c1CC1(C3)Cc3cc4c(c(C(=O)OC)c3C1)CCCC4)CCCC2`, the TGI is > 100 µM.

`O=C(/C=C/c1ccsc1)c1ccsc1` displayed a TGI of 37.7 µM.

The test system of the next assay is SNB-75 CNS. Briefly: NCI-60 cell line screen, 48 h.
As for `COc1cc(C2CC(C)(Nc3ccccc3)Oc3cc4c(cc32)OCO4)cc(OC)c1OC` (stereo unspecified), the TGI was > 100 µM.

Consider `O=C(/C=C/c1ccsc1)c1ccsc1`, for which the TGI is > 100 µM.

Another assay relates to MDA-N. The experiment in a line: NCI-60 cell line screen, 48 h.
Compound `CC1(C)[C@@H]2CC[C@@]1(C)[C@@H]1O[C@@H](O[C@@H](CN)c3cc(Cl)c(OCc4ccccc4)c(OCc4ccccc4)c3)C[C@H]21` showed a TGI of 0.284 µM.

`COc1cc(C2CC(C)(Nc3ccccc3)Oc3cc4c(cc32)OCO4)cc(OC)c1OC` (stereo unspecified) gave a TGI of 0.183 µM.

For the compound `COC(=O)c1c2c(cc3c1CC1(C3)Cc3cc4c(c(C(=O)OC)c3C1)CCCC4)CCCC2`, the TGI was > 100 µM.

As to `O=C(/C=C/c1ccsc1)c1ccsc1`, the TGI came out at 49.7 µM.

A further assay relates to HCC-2998 colon. The experiment in a line: NCI-60 cell line screen, 48 h.
Take `COc1cc(C2CC(C)(Nc3ccccc3)Oc3cc4c(cc32)OCO4)cc(OC)c1OC` (stereo unspecified): the TGI came out at 3.98 µM.

Take `COC(=O)c1c2c(cc3c1CC1(C3)Cc3cc4c(c(C(=O)OC)c3C1)CCCC4)CCCC2`: the TGI was > 100 µM.
